Earlier results in patent EP0743854B1, “ANTI-TUMOUR MEDICAL P[…] THE BASIS OF C[…] THE METHOD OF ITS PRODUCTION” (PLIVA, pharmaceutical industry incorporated, priority 1994, dated 1995).

Conditions: lyophylized injection dissolved in water and other aqueous solutions (sodium chloride, glucose, dextrose)

Compound: N.N.O=C([O-])C1(C(=O)[O-])CCC1.[Pt+2] [carboplatin, cis-diammine-1,1-cyclobutanedicarboxylate platinum (II)]
- stability of solution: stable and therefore therapeutically useful for only few hours, at most few days under lower temperature
